Values quoted from earlier work in patent publication US20170049836A1, “COMPOSITIONS COMPRISING BOTANICALS, INCLUDING THE USE AND METHOD OF USE THEREOF” (FEM MED FORMULAS LIMITED PARTNERSHIP, priority 2010, published 2017).
Where two headings read alike, the source gives them in different places.

Experiments:
[1] = tested on: estrogen receptor-positive breast cancer cells
[2] = tested on: ratio of 2-OHE to 16-αOHE

Row | Compound | effect on cell growth / proliferation [1] | women with sustained increase in ratio of 2-OHE to 16-αOHE ([2]; 17 of 20 women, 200 or 400 mg/day) | average increase in 2-OHE:16-αOHE ratio ([2]; 20 women, 400 mg daily) | increase in 2-OHE:16-αOHE ratio, overall ([2]; 200-400 mg, regular consumption, vast majority of women) | average increase in ratio of 2-OHE to 16-αOHE ([2]; 200 or 400 mg/day, over the course of the trial) | change in 2-OHE:16-αOHE ratio ([2]; all 20 women, 300 or 400 mg, 4 weeks) | average increase in 2-OHE:16-αOHE ratio ([2]; non-obese women, same trial) | average increase in 2-OHE:16-αOHE ratio ([2]; obese women (four out of five), two-month period)
1 | C[C@]12CC[C@@H]3c4cc(O)c(O)cc4CC[C@H]3[C@@H]1CCC2=O [2-OHE, 2-hydroxyestrone] | no effect on cell growth | – | – | – | – | – | – | –
2 | OCc1c[nH]c2ccccc12 [I3C, Indole-3-carbinol] | – | 85% | 65% | approx. 60% | 44% | significantly increased | 38% | 93%
3 | C[C@]12CC[C@@H]3c4ccc(O)cc4CC[C@H]3[C@@H]1C[C@@H](O)C2=O [16-αOHE, 16-αhydrxyestrone] | stimulates proliferation | – | – | – | – | – | – | –
